Assay results published in patent publication US8586555B2, “Immunomodulatory compositions, formulations, and methods for use thereof” (Dynavax Technologies Corporation, priority 2001, dated 2013).

Legend:
Type in all cases: cell-based
[1] = tested on: human peripheral blood mononuclear cells (hPBMC); assay: human PBMC assay, Example 3 (oligo and PLGA added at the same time, 48 well plates); settings: for IFN-α / IFN-γ: oligo 20 μg/ml, PLGA 250 μg/ml, 24 hours
Description: (§1) Hexameric oligonucleotides were tested for immunomodulatory activity alone and complexed with lactic acid/glycolic acid copolymer microcarrier beads using a human peripheral blood mononuclear cells (hPBMC) assay. Peripheral blood was collected from healthy volunteers by venipuncture using heparinized syringes. Blood was layered onto a FICOLL® (Amersham Pharmacia Biotech) cushion and centrifuged. hPBMCs, located at the FICOLL® interface, were collected, then washed twice with cold phosphate buffered saline (PBS). The cells were resuspended and cultured in 48 well plates at 2×10^6 cells/mL at 37° C. in RPMI 1640 with 10% heat-inactivated human AB serum plus 50 units/mL penicillin, 50 μg/mL streptomycin, 300 μg/mL glutamine, 1 mM sodium pyruvate, and 1×MEM non-essential amino acids (NEAA).
(§2) Oligonucleotides were tested as single agents, or in combination with PLGA microspheres (unmodified or cationic). All oligonucleotides contained 100% phosphorothioate linkages and were tested at 20 μg/ml. The PLGA microcarriers were used at 250 μg/ml. When oligos were tested with PLGA microcarriers, the oligo and the microcarriers were added at the same time to the culture. The cells were cultured in the in the presence of test samples for 24 hours, then cell-free medium was collected from each well and assayed for IFN-γ and IFN-α concentration. Two different oligonucleotides were used as controls: a first oligonucleotide known to have immunostimulatory activity (a 22mer oligonucleotide containing an ISS (“ISS+,” 5′-[…]-3′(SEQ ID NO:2)) and a second oligonucleotide of similar sequence but lacking immunostimulatory activity (“ISS−,” 5′-[…]-3′ (SEQ ID NO:1)). SAC (PANSORBIN® CalBiochem, 1/5000 dilution) and a untreated culture were used as additional positive and negative controls, respectively. SAC contains Staph. aureus (Cowan I) cell material. All samples were assayed in duplicate.
(§3) IFN-γ and IFN-α were assayed using CYTOSCREEN™ ELISA kits from BioSource International, Inc., according to the manufacturer's instructions.

[2] = tested on: human peripheral blood mononuclear cells (hPBMC); assay: human PBMC assay, Example 4 (oligos and PLGA premixed 15 minutes)
Description: as §1, §2, §3
Additional hexameric and pentameric oligonucleotides were tested for immunomodulatory activity in the PBMC assay. Oligonucleotides 6-6 (5′-TCGAGA-3′), 6-8 (5′-GTCGAC-3′), 6-9 (5′-GTCGTT-3′), 6-2 (5′-TCGTTT-3′), 6-3 (5′-TTCGTT-3′), 6-4 (5′-TTTCGT-3′), 5-1 (5′-TCGTC-3′), and 5-2 (5′-TCGTT-3′) were tested alone or in combination with cationic PLGA as described in Example 3 except that the oligos and PLGA were premixed for 15 minutes room temperature before addition to the cultures. The test articles were assayed using PBMC isolated from donors 28044 and 28045.

[3] = tested on: human peripheral blood mononuclear cells (hPBMC); assay: human PBMC assay, Example 5 (96 well plates, premixed)
Description: as §1, §2, §3
(§4) The immunomodulatory activity of the oligonucleotides used in Examples 3 and 4 was confirmed with the human PBMC assay using PBMCs from an additional four donors (donors 28051-28054). Oligonucleotides were tested alone or in combination with cationic PLGA as described in Example 3, except that 96 well plates were used instead of 48 well plates and the oligonucleotides were premixed with the cationic microspheres at room temperature for 15 minutes before they were added to the culture, rather than being added simultaneously to the culture.

[4] = tested on: human peripheral blood mononuclear cells (hPBMC); assay: human PBMC assay, Example 6
Description: as §1, §2, §3, §4
Additional oligonucleotides were tested for immunomodulatory activity in the human PBMC assay. Oligonucleotides were tested alone or in combination with cPLGA as described in Example 5.
Additional oligonucleotides were tested using hPBMCs from volunteers 154-157 using the same assay. Results, which are shown in Table 7, confirm the activity of oligonucleotides fitting the formula 5′-X1TCGX2-3′, where the oligonucleotide is a 3-6mer, X1 is zero or one nucleotide and X2 is zero to three nucleotides.

[5] = tested on: human peripheral blood mononuclear cells (hPBMC); assay: human PBMC assay, Example 7 (oligo 20 μg/ml, cPLGA 100 μg/ml)
Description: as §1, §2, §3, §4
Additional oligonucleotides, some incorporating modified bases, were tested for immunomodulatory activity in the human PBMC assay. Oligonucleotides were tested alone or in combination with cPLGA as described in Example 5. The oligonucleotides were premixed with the cationic PLGA microspheres for 15 minutes at room temperature at concentrations of 20 μg/ml and 100 μg/ml, respectively.

Which results are given for “5′-TGACTGTGAACGTTCGAGATGA-3′ [ISS+, reference compound]”?
IFN-α ([1]; donor 28033): 28 pg/mL; IFN-γ ([1]; donor 28033): 99 pg/mL; IFN-α ([1]; donor 28034): 106 pg/mL; IFN-γ ([1]; donor 28034): 223 pg/mL; IFN-α Mean ([1]; mean of donors 28033, 28034): 67 pg/mL; IFN-γ Mean ([1]; mean of donors 28033, 28034): 161 pg/mL; IFN-α ([2]; donor 28044): 401 pg/mL; IFN-γ ([2]; donor 28044): 2180 pg/mL; IFN-α ([2]; donor 28045): 39 pg/mL; IFN-γ ([2]; donor 28045): 669 pg/mL; IFN-α Mean ([2]; mean of donors 28044, 28045): 220 pg/mL; IFN-γ Mean ([2]; mean of donors 28044, 28045): 1425 pg/mL; IFN-α ([3]; donor 28051): 12 pg/mL; IFN-γ ([3]; donor 28051): 66 pg/mL; IFN-α ([3]; donor 28052): 28 pg/mL; IFN-γ ([3]; donor 28052): 20 pg/mL; IFN-α ([3]; donor 28053): 12 pg/mL; IFN-γ ([3]; donor 28053): 72 pg/mL; IFN-α ([3]; donor 28054): 12 pg/mL; IFN-γ ([3]; donor 28054): 23 pg/mL; IFN-α Mean ([3]; mean of donors 28051-28054): 16 pg/mL; IFN-γ Mean ([3]; mean of donors 28051-28054): 45 pg/mL; IFN-α ([4]; donor 28075): 0 pg/mL; IFN-γ ([4]; donor 28075): 48 pg/mL; IFN-α ([4]; donor 28076): 73 pg/mL; IFN-γ ([4]; donor 28076): 76 pg/mL; IFN-α ([4]; donor 28077): 54 pg/mL; IFN-γ ([4]; donor 28077): 15 pg/mL; IFN-α ([4]; donor 28078): 94 pg/mL; IFN-γ ([4]; donor 28078): 72 pg/mL; IFN-α Mean ([4]; mean of donors 28075-28078): 55 pg/mL; IFN-γ Mean ([4]; mean of donors 28075-28078): 53 pg/mL; IFN-α Mean ([4]; mean of volunteers 154-157): 12 pg/mL; IFN-γ Mean ([4]; mean of volunteers 154-157): 317 pg/mL; IFN-α ([4]; volunteer 154): 31 pg/mL; IFN-γ ([4]; volunteer 154): 211 pg/mL; IFN-α ([4]; volunteer 155): 0 pg/mL; IFN-γ ([4]; volunteer 155): 131 pg/mL; IFN-α ([4]; volunteer 156): 15 pg/mL; IFN-γ ([4]; volunteer 156): 86 pg/mL; IFN-α ([4]; volunteer 157): 0 pg/mL; IFN-γ ([4]; volunteer 157): 840 pg/mL; IFN-α ([5]; donor 28115): 54 pg/mL; IFN-γ ([5]; donor 28115): 156 pg/mL; IFN-α ([5]; donor 28116): 29 pg/mL; IFN-γ ([5]; donor 28116): 125 pg/mL; IFN-α ([5]; donor 28117): 17 pg/mL; IFN-γ ([5]; donor 28117): 497 pg/mL; IFN-α ([5]; donor 28118): 0 pg/mL; IFN-γ ([5]; donor 28118): 46 pg/mL; IFN-α Mean ([5]; mean of donors 28115-28118): 25 pg/mL; IFN-γ Mean ([5]; mean of donors 28115-28118): 206 pg/mL
